Laboratory results: PubChem BioAssay AID1956 (SRMLSC, 2009)
Active and inactive are the calls of the source. Rule as the data show it: active = maximum fold increase above about 1.5; inconclusive = no clear call, values can overlap the other calls; inactive = below that; tested in PC3 cells.

These molecules were tested on HSV replication augmentation in cells, fold increase (assay: compounds boosting herpes simplex virus growth – fold increase, host cell viability (AID 1956)).

| Structure (SMILES) | EC50 |
| --- | --- |
| C=CCNC(=S)Nc1ccc2nc(C)oc2c1 | > 25 µM (inactive) |
| CCn1c(/C=C/N(C)c2ccccc2)[n+](CC)c2ccc(Cl)cc21 | 10.2 µM (inactive) |
| O=C(Nc1ccccc1C(=O)Nc1ccccc1C(=O)NCc1ccco1)c1ccco1 | > 25 µM (inactive) |
| CNC(=S)NNC(=O)c1ccc(=O)n(Cc2ccc(Cl)cc2Cl)c1 | > 25 µM (inactive) |
| Cc1cc(=O)[nH]c(SCC(=O)/C=C2\N(C)c3ccccc3C2(C)C)n1 | > 25 µM (inactive) |
| Cn1c(C(=O)Nc2ccc3c(c2)OCCO3)cc2c(=O)n(C)c3ccccc3c21 | > 25 µM (inactive) |
| O=C(O)c1ccc(/C=N/Nc2ncc(C(F)(F)F)cc2Cl)cc1 | > 25 µM (inactive) |
| COc1cccc(C(=O)N2CCN(CCCc3ccccc3)CC2)c1OC | > 25 µM (inactive) |
| Cc1cccc(N=C2NC(=O)/C(=C/C=C/c3ccco3)S2)c1 | > 25 µM (inactive) |
| CC(C)N(C(=O)N1CCC(c2nc(-c3ccncc3)no2)CC1)C(C)C | > 25 µM (inactive) |
| Nc1cccnc1Sc1cc(Cl)c(Cl)cc1Cl | > 25 µM (inactive) |
| CS(=O)(=O)N1CC2CCCN2c2cc(C(F)(F)F)ccc21 (centres undefined) | > 25 µM (inactive) |
| CC(C)(C)c1cc(-c2n[nH]c(=S)n2-c2ccccc2F)n[nH]1 | > 25 µM (inactive) |
| Cc1ccc(-n2nc3c(c2NC(=O)c2ccc(OC(C)C)cc2)CS(=O)C3)cc1 (centres undefined) | > 25 µM (inactive) |
| CC(C(=O)c1c[nH]c2ccccc12)N1CCc2ccccc2C1 (centres undefined) | > 25 µM (inactive) |
| Nc1ccccc1Nc1cc(-c2ccccc2)[nH]n1 | 10.9 µM (inactive) |
| Cc1ccc(Oc2nnc(-c3ccccc3)c3ccccc23)cc1 | > 25 µM (inactive) |
| COc1cccc(C2C=C(c3ccc(OC)cc3OC)Nc3nnnn32)c1 (centres undefined) | > 25 µM (inactive) |
| CN1C(=O)CC(c2ccco2)Sc2ccccc21 (centres undefined) | > 25 µM (inactive) |
| Nc1c(Cl)ncnc1N/N=C/c1ccc2ccccc2n1 | 4.3 µM (inactive) |
| Cc1cccc(CSc2nnc(-c3cnccn3)n2C)c1 | > 25 µM (inactive) |
| C[N+]1=C(/C=C/Nc2ccccc2Cl)C(C)(C)c2ccccc21 | > 25 µM (inactive) |
| O=C1NC(=O)N(Cc2ccco2)C(=O)/C1=C\c1cccn1CCOc1ccc(Cl)cc1 | > 25 µM (inactive) |

| Structure (SMILES) | EC50 |
| --- | --- |
| Cn1cc(Br)c(NC(=O)/C=C/C(=O)O)n1 | > 25 µM (inactive) |
| O=C(c1cc(COc2ccc3ncccc3c2)on1)N1CCC(O)CC1 | > 25 µM (inactive) |
| Cc1ccccc1C(=O)NNc1ccc([N+](=O)[O-])cc1 | > 25 µM (inactive) |
| CN(CC1CCOCC1)C(=O)CC1C(=O)NCCN1CC1CCCCC1 (centres undefined) | > 25 µM (inactive) |
| O=C(O)/C=C/C(=O)Nc1ccc(-n2ccc(C(F)(F)F)n2)cc1 | > 25 µM (inactive) |
| OC(CNCc1ccccc1)c1ccccc1 (centres undefined) | > 25 µM (inactive) |
| CC1(C)CC(=O)C(C=Nc2ccc(C(=O)c3ccccc3)cc2N=CC2=C(O)CC(C)(C)CC2=O)=C(O)C1 | > 25 µM (inactive) |
| CC(C)Oc1ncnc2c1[nH]c1ccccc12 | 3.18 µM (inactive) |
| Cc1ccc(Cn2c(=N)n(CC(O)c3ccco3)c3ccccc32)cc1 (centres undefined) | > 25 µM (inactive) |
| CCOCCCNC(=O)CN1C(=O)C(CC)Oc2ccccc21 (centres undefined) | > 25 µM (inactive) |
| CSc1nc(Cl)c(Cc2ccc(OC(C)C)cc2)c(N(C)C)n1 | > 25 µM (inactive) |
| NC(=S)Nc1cc(Cl)cc(Cl)c1 | > 25 µM (inactive) |
| COc1cccc(N2CCN(Cc3nc4scc(-c5ccccc5)c4c(=O)[nH]3)CC2)c1 | 21.9 µM (inactive) |
| CC(=O)Nc1ccc(S(=O)(=O)Nc2cc(-c3ccccc3)nn2C)cc1 | > 25 µM (inactive) |
| O=C(Nc1nc(-c2ccccn2)cs1)c1cccc(-n2cnnn2)c1 | > 25 µM (inactive) |
| CCOC(=O)COc1ccc(S(=O)(=O)Nc2ccc(C)cc2)cc1 | > 25 µM (inactive) |
| Cc1nc2ccccc2c2oc(C(=O)N3CCc4ccccc4C3)cc12 | > 25 µM (inactive) |
| CCOC(=O)c1c(NC(=O)C2COc3ccccc3O2)sc2c1CCN(Cc1ccccc1)C2 (centres undefined) | > 25 µM (inactive) |
| COc1ccc(OC2C(=O)N(Cc3ccc4c(c3)OCO4)C2c2sccc2C)cc1 (centres undefined) | > 25 µM (inactive) |
| Oc1ccc(N=Nc2cccc(C(F)(F)F)c2)cc1C=Nc1ccc(N2CCOCC2)cc1 | 18.8 µM (inactive) |
| CCOC(=O)c1c(NC(=O)c2cc3n(n2)C(C(F)(F)F)CC(c2cccs2)N3)sc(C)c1C (centres undefined) | 16.6 µM (inactive) |
| CCCN1C(=O)C2(C(C(=O)c3ccc(C)o3)=C(O)C(=O)N2CCCOC)c2ccccc21 (centres undefined) | > 25 µM (inactive) |
| O=C(CC1NCCNC1=O)NC1Cc2ccccc2C1 (centres undefined) | > 25 µM (inactive) |

| Structure (SMILES) | EC50 |
| --- | --- |
| O=C1CCCC2=C1C(c1ccc(Cl)cc1)n1c(s/c(=C\c3ccc4ccncc4c3)c1=O)=N2 (centres undefined) | > 25 µM (inactive) |
| CN1C(=O)C(C2c3ccccc3C(=O)N2Cc2ccc([N+](=O)[O-])cc2)C(=O)N(C)C1=O (centres undefined) | > 25 µM (inactive) |
| Cc1ccc(-c2nc(CSCC(=O)N3CCN(c4ccccn4)CC3)c(C)o2)cc1 | 15.7 µM (inactive) |
| CCN(CC)c1ccc(/C=N/Nc2nc(C)cc(C)n2)cc1 | 23.2 µM (inactive) |
| CC1=CC(C)(C)Nc2ccc(OC(=O)CN3C(=O)C4CCCCC4C3=O)cc21 (centres undefined) | > 25 µM (inactive) |
| Cc1ccc(S(=O)(=O)N(C(=O)c2ccncc2)c2ccc(OC(=O)c3ccncc3)c3ccccc23)cc1 | 18.3 µM (inactive) |
| CC1(C(O)(C#CCN2CCCCC2)c2ccccc2)CCCC1 (centres undefined) | > 25 µM (inactive) |
| N#C/C(=C\c1ccccc1[N+](=O)[O-])C(=O)NC1CCCCC1 | > 25 µM (inactive) |
| CCOC(=O)c1cnc(COc2ccc(OC)cc2)[nH]c1=O | > 25 µM (inactive) |
| Cc1ccc(C(=O)NNC2=Nc3cccc4cccc2c34)cc1 | > 25 µM (inactive) |
| CCCCn1ccnc1C(=O)c1cccc(S(=O)(=O)N2CC(C)CC(C)C2)c1 (centres undefined) | > 25 µM (inactive) |
| Cc1cccc2nc3c(nc12)-c1ccccc1C3=O | > 25 µM (inactive) |
| O=C1NC(c2ccccc2)=N/C1=C/c1ccco1 | > 25 µM (inactive) |
| Cc1ccc(Cn2ccc(-c3cnc(-c4ccccc4)s3)n2)cc1 | > 25 µM (inactive) |
| COc1ccc(C2C(C#N)=C(N)N(c3sc4c(c3C#N)CCCC4)C3=C2C(=O)CC(C)(C)C3)cc1 (centres undefined) | > 25 µM (inactive) |
| O=C(O)/C(=C\c1ccc(Br)cc1)c1ccc(S(=O)(=O)N2CCCCC2)s1 | > 25 µM (inactive) |
| COC(=O)C1=C(O)C(C(=O)OC)C(c2ccc(C)cc2)C(C#N)(C#N)C1c1ccc(C)cc1 (centres undefined) | > 25 µM (inactive) |
| C=CCN1C(=O)[C@]2(c3ccccc31)C1CCCC=C1C(C#N)=C(N)C2(C#N)C#N (some centres undefined) | > 25 µM (inactive) |
| NS(=O)(=O)c1ccc(NC(=O)COC(=O)c2c3c(nc4ccccc24)/C(=C\c2ccc4c(c2)OCO4)CCC3)cc1 | > 25 µM (inactive) |
| Cc1ccc(-c2nc(NC(=O)CSc3nnc4scc(-c5ccccc5)n34)ns2)cc1 | > 25 µM (inactive) |
| COc1ccccc1NC(=O)c1ccc(Br)o1 | > 25 µM (inactive) |
| CCN(CC)c1ccc(CC2C(=O)N(C)C(=O)N(C)C2=O)cc1 | > 25 µM (inactive) |
| CC(=O)c1cccc(NC(=O)/C=C/c2ccc([N+](=O)[O-])s2)c1 | 19 µM (inactive) |

| Structure (SMILES) | EC50 |
| --- | --- |
| CC(C)(C)c1ccc(Oc2ccc(N)cn2)cc1 | > 25 µM (inactive) |
| CCc1ccc(NC(=O)COc2ccc(/C=C(/C#N)c3nc4ccccc4[nH]3)cc2OC)cc1 | 24 µM (inactive) |
| O=C1CC(/C=C/c2ccccn2)=Nc2ccccc2N1 | 22.8 µM (inactive) |
| CCN1C(=O)/C(=C/C=C2\C=CN(CC)c3ccccc32)SC1=S | > 25 µM (inactive) |
| COc1ccc(S(=O)(=O)/N=C2/NC(=O)/C(=C\c3ccco3)S2)cc1 | > 25 µM (inactive) |
| N#C/C(=C\Nc1ccc2cn[nH]c2c1)c1nc(-c2ccc(Cl)cc2)cs1 | 24.4 µM (inactive) |
| O=S(=O)(Nc1ccc(Cc2ccncc2)cc1)c1ccc(Cl)c(Cl)c1 | > 25 µM (inactive) |
| CCOC(=O)C1=C(N)Oc2c(oc(CO)cc2=O)C1c1ccc(Cl)cc1 (centres undefined) | > 25 µM (inactive) |
| O=C(C1=NN[C@@H]2C(=O)N(c3cccc(F)c3)C(=O)[C@H]12)c1cnccn1 | > 25 µM (inactive) |
| COc1ccc(CCc2nnc(CCC(=O)N(C)Cc3ccnc4ccccc34)o2)cc1 | 13.1 µM (inactive) |
| COCc1ccc(C(=O)N2CCCC(C(=O)c3cc(F)ccc3F)C2)s1 (centres undefined) | > 25 µM (inactive) |
| CC(C)(C)c1ccc(Cn2c(=N)n(CC(O)c3ccco3)c3ccccc32)cc1 (centres undefined) | 11.4 µM (inactive) |
| O=c1cc(N2CCCCC2)c(-c2ccccc2)nn1Cc1c(Cl)cccc1Cl | > 25 µM (inactive) |
| COc1ccccc1OP(=O)(Nc1cccnc1)Oc1ccccc1OC | > 25 µM (inactive) |
| CCOCCCNC(=S)N1CCCN(c2nc3cc(C)c(C)cc3cc2C#N)CC1 | > 25 µM (inactive) |
| CCc1ccc2[nH]c(=O)c(CN(Cc3ccccc3OC)Cc3nnnn3Cc3ccco3)cc2c1 | > 25 µM (inactive) |
| CC(C)CC(N=C1NC(C)(C)Cc2ccccc21)C(=O)O (centres undefined) | > 25 µM (inactive) |
| N#CC1=C2N=C(N)c3ccccc3N2C2=C(C(=O)CCC2)C1c1ccc(Cl)cc1 (centres undefined) | > 25 µM (inactive) |
| COC(=O)c1c(C)[nH]c(O)c1C=Nc1ccc(C(C)C)cc1 | > 25 µM (inactive) |
| NNc1nc(-c2ccccc2Cl)nc2sc3c(c12)CCCC3 | > 25 µM (inactive) |
